Laboratory results from patent publication US20230416202A1, “Small Molecule Compounds and Compositions” (Telo Therapeutics, Inc., priority 2020, published 2023).
Read-outs that look alike come from different tables or passages of the source.

Key:
Mutant TERT = assay: HepG2 hTERT mRNA assay (qPCR); type: cell-based, human; conditions: HepG2 cells (mutated TERT), 48 hours, TERT mRNA via qPCR
Description: (§1) HepG2 cells (hepatocyte carcinoma (HCC) cells; with mutated TERT) or HEK293T cells (with wild type (wt) TERT) were seeded at 4,000 cells/well in 96-well plates. The following day, test compounds were added to cells for at concentrations of 25 uM, 12.5 uM, 6.25 uM, 3.125 uM, 1.563 uM, 0.781 uM, 0.391 uM, 0.195 uM, 0.098 uM or vehicle control (0.1% DMSO). Each condition was tested in three replicate wells. 48 hours post drug addition, the cells were harvested for RNA using the 96-Magmax RNA Isolation kit (Cat. No. AM1830). RNA was converted to cDNA using the Superscript III First strand cDNA synthesis kit (Cat. No. 18080051). RNA and cDNA concentration and quality were determined using the NanoQuant nucleic acid quantification method. 500 ng cDNA from each sample was used to detect TERT mRNA via qPCR. GUSB was also measured as an internal control and fold change to vehicle control was determined using the delta CT method.

wt TERT = assay: HEK293T hTERT mRNA assay (qPCR); type: cell-based, human; conditions: Homo sapiens
Description: as §1

[1] = HEK-293T, wild type TERT, read-out: wt TERT IC50
[2] = HEK293 cells (wt TERT), 48 hours, class symbols, read-out: wt TERT IC50 uM HEK293

Structure (SMILES) | IC50 (Mutant TERT; Homo sapiens) [nM] | further results
O=C(O)CC1CC(c2ccc(C(F)(F)F)cc2)CN(Cc2ccc(C(F)(F)F)cc2)C1 (stereo not shown) [Compound 132] |  | IC50 (Mutant TERT): 500 to 5000 nM
O=C(O)CC[C@H]1C[C@H](c2ccc(C(F)(F)F)cc2)CN(Cc2ccc(C(F)(F)F)cc2)C1 [Compound 126, Anti-3-(1-(4-(trifluoromethyl)benzyl)-5-(4-(trifluoromethyl)phenyl)piperidin-3-yl)propanoic acid] | 500 to 5000 | 
C#Cc1ccc([C@H]2C[C@H](CC(=O)O)CN(Cc3ccc(C4(C(F)(F)F)N=N4)cc3)C2)cc1 (racemic) [Compound 136, Anti-2-(5-(4-ethynylphenyl)-1-(4-(3-(trifluoromethyl)-3H-diazirin-3-yl)benzyl)piperidin-3-yl)acetic acid] | 500 to 5000 | 
C#Cc1ccc([C@H]2C[C@H](CC(=O)O)CN(Cc3ccc(N=[N+]=[N-])cc3)C2)cc1 (racemic) [Compound 137, Anti-2-(1-(4-azidobenzyl)-5-(4-ethynylphenyl)piperidin-3-yl)acetic acid] | 500 to 5000 | 
C#Cc1ccc([C@@H]2C[C@@H](CC(=O)O)CN(Cc3ccc(C4(C(F)(F)F)N=N4)cc3)C2)cc1 (single isomer, unassigned) [Compound 146] | 500 to 5000 | 
N#Cc1cccc([C@H]2C[C@H](CC(=O)O)CN(Cc3ccc(C(F)(F)F)cc3)C2)c1 (racemic) [Compound 127, anti-2-(5-(3-cyanophenyl)1-(4-(trifluoromethyl)benzyl)piperidin-3-yl)acetic acid] | 500 to 5000 | 
CCC(C(=O)O)[C@@H]1C[C@@H](c2ccc(C(F)(F)F)cc2)CN(Cc2ccc(C(F)(F)F)cc2)C1 (mixture of isomers) [Compound 125, Anti-2-(1-(4-(trifluoromethyl)benzyl)-5-(4-(trifluoromethyl)phenyl)piperidin-3-yl)butanoic acid] | 500 to 5000 | 
O=C(O)C[C@H]1C[C@H](c2ccc(C(F)(F)F)cc2)CN(Cc2ccc3ccccc3c2)C1 (racemic) [Compound 141, Anti-2-(1-(naphthalen-2-ylmethyl)-5-(4-(trifluoromethyl)phenyl)piperidin-3-yl)acetic acid] | 500 to 5000 | 
O=C(O)C[C@H]1C[C@H](c2ccc(F)cc2)CN(Cc2ccc(C(F)(F)F)cc2)C1 (racemic) [Compound 122, Anti-2-(5-(4-fluorophenyl)-1-(4-(trifluoromethyl)benzyl)piperidin-3-yl)acetic acid] | 500 to 5000 | 
O=C(O)C[C@H]1C[C@H](c2cccc(Cl)c2)CN(Cc2ccc(C(F)(F)F)cc2)C1 (racemic) [Compound 143, Anti-2-(5-(3-chlorophenyl)-1-(4-(trifluoromethyl)benzyl)piperidin-3-yl)acetic acid] | 5000 to 25000 | 
COc1cccc(CN2C[C@H](CC(=O)O)C[C@@H](c3ccc(C(F)(F)F)cc3)C2)c1 [Compound 110, 2-((3S,5S)-1-(3-methoxybenzyl)-5-(4-(trifluoromethyl)phenyl)piperidin-3-yl)acetic acid] | > 25000 | IC50 (wt TERT; [1]): > 25 µM; IC50 (wt TERT; [2]): > 25 µM
O=C(O)C[C@@H]1C[C@@H](c2ccc(C(F)(F)F)cc2)CN(Cc2ccc(Cl)cc2)C1 [Compound 116, 2-((3S,5S)-1-(4-chlorobenzyl)-5-(4-(trifluoromethyl)phenyl)piperidin-3-yl)acetic acid] | 500 to 5000 | 
O=C(O)C[C@H]1C[C@H](c2ccc(Cl)cc2)CN(Cc2ccc(C(F)(F)F)cc2)C1 (racemic) [Compound 123, Anti-2-(-5-(4-chlorophenyl)-1-(4-(trifluoromethyl)benzyl)piperidin-3-yl)acetic acid] | < 500 | 
O=C(O)C[C@H]1C[C@H](c2ccc(F)c(F)c2)CN(Cc2ccc(C(F)(F)F)cc2)C1 (racemic) [Compound 121, Anti-2-(-5-(3,4-difluorophenyl)-1-(4-(trifluoromethyl)benzyl)piperidin-3-yl)acetic acid] | 500 to 5000 | 
O=C(O)C[C@H]1C[C@H](c2ccc(C(F)(F)F)cc2)CN(Cc2ccc(C(F)(F)F)c(F)c2)C1 (racemic) [Compound 130, Anti-2-(1-(3-fluoro-4-(trifluoromethyl)benzyl)-5-(4-(trifluoromethyl)phenyl)piperidin-3-yl)acetic acid] | 500 to 5000 | 
CS(=O)(=O)c1ccc(CN2C[C@H](CC(=O)O)C[C@@H](c3ccc(C(F)(F)F)cc3)C2)cc1 [Compound 120, 2-((3S,5S)-1-(4-(methylsulfonyl)benzyl)-5-(4-(trifluoromethyl)phenyl)piperidin-3-yl)acetic acid] | 500 to 5000 | 
N#Cc1cccc(CN2C[C@@H](CC(=O)O)C[C@H](c3ccc(C(F)(F)F)cc3)C2)c1 (racemic) [Compound 124, Anti-2-(-1-(3-cyanobenzyl)-5-(4-(trifluoromethyl)phenyl)piperidin-3-yl)acetic acid] | < 500 | 

Structure (SMILES) | IC50 (Mutant TERT; Homo sapiens) [nM] | further results
O=C(O)C[C@H]1C[C@H](c2ccc(Cl)cc2)CN(Cc2ccc(Cl)cc2)C1 (racemic) [Compound 135, Anti-2-(1-(4-chlorobenzyl)-5-(4-chlorophenyl)piperidin-3-yl)acetic acid] | < 500 | 
O=C(O)C[C@@H]1C[C@@H](c2ccc(C(F)(F)F)cc2)CN(Cc2cccc(C(F)(F)F)c2)C1 [Compound 111, 2-((3S,5S)-1-(3-(trifluoromethyl)benzyl)-5-(4-(trifluoromethyl)phenyl)piperidin-3-yl)acetic acid] | < 500 | IC50 (wt TERT; [1]): > 25 µM; IC50 (wt TERT; [2]): > 25 µM
O=C(O)C[C@@H]1C[C@@H](c2ccc(Cl)cc2)CN(Cc2ccc(C(F)(F)F)cc2)C1 (single isomer, unassigned) [Compound 142] | < 500 | 
O=C(O)C[C@@H]1C[C@@H](c2ccc(C(F)(F)F)cc2)CN(Cc2ccccc2F)C1 [Compound 119, 2-((3S,5S)-1-(2-fluorobenzyl)-5-(4-(trifluoromethyl)phenyl)piperidin-3-yl)acetic acid] | 500 to 5000 | 
O=C(O)C[C@H]1C[C@H](c2ccc(C(F)(F)F)cc2)CN(Cc2ccccc2)C1 (racemic) [Compound 138, Anti-2-(1-benzyl-5-(4-(trifluoromethyl)phenyl)piperidin-3-yl)acetic acid] | 500 to 5000 | 
O=C(O)C[C@H]1C[C@H](CCc2ccc(C(F)(F)F)cc2)CN(Cc2ccc(C(F)(F)F)cc2)C1 (racemic) [Compound 133, Anti-2-(1-(4-(trifluoromethyl)benzyl)-5-(4-(trifluoromethyl)phenethyl)piperidin-3-yl)acetic acid] | 500 to 5000 | 
N#Cc1cc(CN2C[C@H](CC(=O)O)C[C@@H](c3ccc(C(F)(F)F)cc3)C2)ccc1Cl (racemic) [Compound 140, Anti-2-(1-(4-chloro-3-cyanobenzyl)-5-(4-(trifluoromethyl)phenyl)piperidin-3-yl)acetic acid] | 500 to 5000 | 
O=C(O)C[C@H]1C[C@H](c2ccc(C(F)(F)F)cc2)CN(Cc2ccc(C(F)(F)F)cc2F)C1 (racemic) [Compound 128, Anti-2-(1-(2-fluoro-4-(trifluoromethyl)benzyl)-5-(4-(trifluoromethyl)phenyl)piperidin-3-yl)acetic acid] | 500 to 5000 | 
[N-]=[N+]=NCc1ccc(CN2C[C@H](CC(=O)O)C[C@@H](c3ccc(N=[N+]=[N-])cc3)C2)cc1 (single isomer, unassigned) [Compound 145] | 500 to 5000 | 
O=C(O)C[C@H]1C[C@H](c2ccc(C(F)(F)F)cc2)CN(Cc2ccc(C(F)(F)F)cc2Cl)C1 (racemic) [Compound 131, Anti-2-(-1-(2-chloro-4-(trifluoromethyl)benzyl)-5-(4-(trifluoromethyl)phenyl)piperidin-3-yl)acetic acid] | 500 to 5000 | 
C#Cc1ccc(CN2C[C@H](CC(=O)O)C[C@@H](c3ccc(N=[N+]=[N-])cc3)C2)cc1 (single isomer, unassigned) [Compound 144] | 500 to 5000 | 
[N-]=[N+]=NCc1ccc(CN2C[C@@H](CC(=O)O)C[C@H](c3ccc(N=[N+]=[N-])cc3)C2)cc1 (racemic) [Compound 134, anti-2-(1-(4-(azidomethyl)benzyl)-5-(4-azidophenyl)piperidin-3-yl)acetic acid] | 500 to 5000 | 
O=C(O)C[C@H]1C[C@H](c2ccc(C(F)(F)F)c(F)c2)CN(Cc2ccc(C(F)(F)F)cc2)C1 (racemic) [Compound 129, Anti-2-(5-(3-fluoro-4-(trifluoromethyl)phenyl)-1-(4-(trifluoromethyl)benzyl)piperidin-3-yl)acetic acid] | 500 to 5000 | 
O=C(O)C[C@@H]1C[C@@H](c2ccc(Cl)cc2)CN(Cc2ccc(Cl)cc2)C1 [Compound 139, 2-((3S,5S)-1-(4-chlorobenzyl)-5-(4-chlorophenyl)piperidin-3-yl)acetic acid] | 500 to 5000 | 
O=C(O)C[C@@H]1C[C@@H](c2ccc(C(F)(F)F)cc2)CN(Cc2ccc(F)c(F)c2)C1 [Compound 118, 2-((3S,5S)-1-(3,4-difluorobenzyl)-5-(4-(trifluoromethyl)phenyl)piperidin-3-yl)acetic acid] | < 500 | 
O=C(O)C[C@@H]1C[C@@H](c2ccc(C(F)(F)F)cc2)CN(Cc2ccc(F)cc2)C1 [Compound 117, 2-((3S,5S)-1-(4-fluorobenzyl)-5-(4-(trifluoromethyl)phenyl)piperidin-3-yl)acetic acid] | 500 to 5000 | 
